Read-outs that look alike come from different tables or passages of the source.

Results on twelve molecules are retold here after publication PMC9658052, “Virtual Screening and Biological Activity Evaluation of New Potent Inhibitors Targeting Hexokinase-II” (Molecules, 2022).

One test deals with A549 cells. In words: MTT cytotoxicity assay, A549. It is filed as cell-based. To be noted: Homo sapiens, 48 h, read-out: IC50 (toxicity) A549. On the procedure:
(§1) Initially, we adopted the MTT assay to screen the cytotoxicity of all compounds toward three different types of cancer cell lines (HeLa, HepG 2 and A549). […] The chemical structures of the selected compounds are depicted in Figure 2.
(§2) HeLa, Hep G2, and A549 cells were purchased from the Shanghai Institute of Biochemistry and Cell Biology, Chinese Academy of Sciences. All cells were cultured in DMEM with 100 units/mL penicillin/streptomycin, 2 mM glutamine, and 10% FBS in a carbon dioxide atmosphere at 37 °C.
(§3) Cytotoxicity was quantified using a standard MTT assay, which is widely used in evaluating cell proliferation and screening for anticancer drugs. Briefly, following 7 × 10^3 cells incubating in 96-well plates for 48 h filled with DMEM medium supplemented with 10% fetal bovine serum (FBS) containing different concentrations of samples, 10 μL/well of MTT (5 mg/mL) was added. After 4 h of incubation at 37 °C, 100 μL of extraction buffer containing 5% iso-butanol, 0.1% HCl, and 10% SDS was added, and then the cells were incubated overnight. As controls, cells were treated with 0.1% (v/v) DMSO alone. The cell viability was calculated by the absorbance (570 nm) of each well obtained using a microplate reader (Thermo Scientific Multiskan GO, Vantaa, Finland).

The next test has as its system HepG 2 cells. The experiment in a line: MTT cytotoxicity assay, HepG 2. It is filed as cell-based. To be noted: Homo sapiens, HepG2, 48 h, read-out: IC50 (toxicity) HepG 2. On the procedure:
as §1, §2, §3
Background: Tetrazolium dyes change colour on reduction, which living cells bring about.

A further test has as its system HeLa cells. The experiment in a line: MTT cytotoxicity assay, HeLa. It is filed as cell-based. The note with it: Homo sapiens, 48 h, read-out: IC50 (toxicity) Hela. The protocol:
as §1, §2, §3

A further test has as its target T1, Hexokinase-II enzyme (Homo sapiens, UniProt P52789).
T1 construct: purchased Abcam ab211114
T1 sequence (P52789 1-917): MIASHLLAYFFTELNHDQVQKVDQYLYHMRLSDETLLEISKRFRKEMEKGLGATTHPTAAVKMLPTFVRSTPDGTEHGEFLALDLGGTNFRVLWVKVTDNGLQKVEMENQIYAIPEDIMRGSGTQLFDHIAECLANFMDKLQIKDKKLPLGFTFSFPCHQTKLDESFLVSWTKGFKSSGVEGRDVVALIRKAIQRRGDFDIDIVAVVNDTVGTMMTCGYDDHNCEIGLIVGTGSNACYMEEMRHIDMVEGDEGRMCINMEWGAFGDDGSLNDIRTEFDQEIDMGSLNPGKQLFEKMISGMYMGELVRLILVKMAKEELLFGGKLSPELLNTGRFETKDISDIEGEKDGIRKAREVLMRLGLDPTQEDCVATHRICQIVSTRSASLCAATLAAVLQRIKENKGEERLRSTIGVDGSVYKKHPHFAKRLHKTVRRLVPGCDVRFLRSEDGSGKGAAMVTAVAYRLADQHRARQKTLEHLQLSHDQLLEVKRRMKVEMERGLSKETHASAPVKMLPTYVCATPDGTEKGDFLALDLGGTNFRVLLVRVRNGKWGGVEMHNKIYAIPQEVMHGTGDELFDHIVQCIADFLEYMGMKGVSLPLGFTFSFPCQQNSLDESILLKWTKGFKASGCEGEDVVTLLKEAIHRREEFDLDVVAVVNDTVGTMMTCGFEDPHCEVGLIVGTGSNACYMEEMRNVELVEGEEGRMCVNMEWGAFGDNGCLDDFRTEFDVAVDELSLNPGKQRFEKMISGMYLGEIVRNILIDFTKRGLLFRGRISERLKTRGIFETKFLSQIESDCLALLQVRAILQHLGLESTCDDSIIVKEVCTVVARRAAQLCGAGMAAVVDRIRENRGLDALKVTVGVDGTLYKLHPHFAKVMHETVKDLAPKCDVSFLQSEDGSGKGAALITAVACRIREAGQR
In words: Hexokinase-II inhibitor screening kit (enzyme activity). It is filed as biochemical. To be noted: compound 1 to 128 μM. On the procedure: Since nine compounds display the highest cytotoxicity to three different cancer cells, we then verified the effects of the compounds on Hexokinase-II activity.
Figure 3 Inhibition of compounds 4244-3659 and K611-0094 on Hexokinase-II activity. […] All data were expressed as mean ± SE from three independent experiments. ** p < 0.01 vs. the control groups.
The Hexokinase-II activity was tested via a Hexokinase-II inhibitor screening kit (Abcam, Cambridge, UK, ab211114), and all experiments were carried out following the manufacturer’s instructions. […] HK assay buffer was treated as negative control, bromopyruvic acid was used for positive controls, and DMSO was used as a solvent control. The value of OD at 450 nm at 15 min and 25 min was recorded. IC50 values were calculated in GraphPad Prism 5.

The test system of another test is HK-II. The note with it: cited from earlier work.
On the set-up of test [1]: method as in PMID 20215500, PMID 16044218. The note with it: mice, dose range from 500 mg/Kg to 2000 mg/Kg; cited from earlier work.
Setting [2] is: 5 min at 25 °C preincubation, read-out: EC50, inhibitory effect on HK-II enzyme activity.
The mark [3] stands for this setting: read-out: IC50 on Hexokinase-II enzyme.

For `CCOC(=O)c1c(C)n(C)c2ccc(OC[C@H](O)CN[C@H](CC)CO)cc12` [6913-0012], the results for the IC50 in the test with A549 cells, in the test with HepG 2 cells and in the test with HeLa cells were 62.6 ± 0.7 µM, 59 ± 0.2 µM and 51.9 ± 1.5 µM, respectively.

For the molecule `Nc1nc(SCC(=O)Nc2cccc([N+](=O)[O-])c2)sc1C(=O)Nc1nccs1` [K611-0094], the IC50 on Hexokinase-II enzyme (setting [2]) came to 45 ± 1.1 µM; at Hexokinase-II enzyme (setting [3]) it was 45 ± 1.1 µM; in the test with A549 cells, 48.8 ± 1.2 µM; in the test on HepG 2 cells, 57.9 ± 1.7 µM; in the test on HeLa cells, 47.8 ± 0.6 µM.

For `O=C(N/N=C/c1ccc(Cl)c(Cl)c1)c1cc(O)c(O)c(O)c1` [AK-968/41922716], the IC50 with A549 cells came to 31 µM; with HepG 2 cells, 40 ± 0.2 µM; in the test with HeLa cells, 28.5 ± 1.9 µM.

Regarding `CN(C)C(=N)N=C(N)N` [metformin], the IC50 in the test with HK-II (weak inhibitory effect, read-out: IC50 against HK-II) was greater than 10000 µM.

Take `CN1C(=O)[C@](O)(CC(=O)c2cc(O)ccc2O)c2ccccc21` [4244-3659]: the IC50 at Hexokinase-II enzyme (setting [2]) was 17.5 ± 1.4 µM; at Hexokinase-II enzyme (setting [3]), 17.5 ± 1.4 µM; with A549 cells, 54.6 ± 2.6 µM; in the test on HepG 2 cells it was 62.5 ± 2.1 µM; in the test with HeLa cells, 62.1 ± 2 µM.

With `O=CC[C@@H](O)[C@H](O)[C@H](O)CO` [2-Deoxyglucose (2-DG), 2-Deoxyglucose], the “therapeutic effect of a single agent” value in test [1] is on record as “no significant therapeutic effect”.

Take “€-4-Nitro-N′-(2,3,4-trihydroxybenzylidene)”: the IC50 in the test on HK-II (read-out: enzyme activity (HK2 inhibitor)) is 0.53 ± 0.13 µM.

Turning to `CC(=O)c1c(C)[nH]c2ccc(OC[C@@H](O)CNCCc3ccccc3)cc12` [D016-0099], the IC50 was 50.4 ± 0.3 µM in the test with A549 cells, 44.2 ± 0.6 µM with HepG 2 cells and 48.5 ± 1.2 µM in the test on HeLa cells.

For `O[C@H](CNCc1ccccc1)COc1cccc2ccccc12` [AO-423/13128074], the IC50 on Hexokinase-II enzyme (setting [2]) was greater than 128 µM; in the test with A549 cells it was 38.6 ± 0.8 µM; with HepG 2 cells, 30 ± 1.4 µM; in the test with HeLa cells, 27.7 ± 0.6 µM.

In the case of `O=C(CSc1nc2c(sc3ccccc32)c(=O)n1Cc1cccnc1)Nc1ccc(O)c(O)c1` [K263-0793], the IC50 at Hexokinase-II enzyme (setting [2]) is greater than 128 µM; in the test on A549 cells, 27.1 ± 1.4 µM; in the test on HepG 2 cells, 22.1 ± 0.9 µM; in the test on HeLa cells, 22.4 ± 1.4 µM.

On to `O=C(O)C(=O)CBr` [3-Bromopyruvate (3-BrPA), 3-Bromopyruvate], for which, in the test with HK-II, the “inhibitory action against HK-II” value is “moderate inhibitory action”.

Turning to `Cc1ccc(C(C)C)c(OC[C@H](O)CNCc2ccccc2)c1` [AP-124/43383769], the IC50 on Hexokinase-II enzyme (setting [2]) worked out at 104 ± 1.1 µM; in the test with A549 cells it was 36.5 ± 0.4 µM; in the test with HepG 2 cells it was 23.3 µM; with HeLa cells, 25.1 ± 0.9 µM.
